Molecular target: T1, Prostaglandin G/H synthase 2 (Homo sapiens, UniProt P35354)
T1 sequence (P35354 whole entry): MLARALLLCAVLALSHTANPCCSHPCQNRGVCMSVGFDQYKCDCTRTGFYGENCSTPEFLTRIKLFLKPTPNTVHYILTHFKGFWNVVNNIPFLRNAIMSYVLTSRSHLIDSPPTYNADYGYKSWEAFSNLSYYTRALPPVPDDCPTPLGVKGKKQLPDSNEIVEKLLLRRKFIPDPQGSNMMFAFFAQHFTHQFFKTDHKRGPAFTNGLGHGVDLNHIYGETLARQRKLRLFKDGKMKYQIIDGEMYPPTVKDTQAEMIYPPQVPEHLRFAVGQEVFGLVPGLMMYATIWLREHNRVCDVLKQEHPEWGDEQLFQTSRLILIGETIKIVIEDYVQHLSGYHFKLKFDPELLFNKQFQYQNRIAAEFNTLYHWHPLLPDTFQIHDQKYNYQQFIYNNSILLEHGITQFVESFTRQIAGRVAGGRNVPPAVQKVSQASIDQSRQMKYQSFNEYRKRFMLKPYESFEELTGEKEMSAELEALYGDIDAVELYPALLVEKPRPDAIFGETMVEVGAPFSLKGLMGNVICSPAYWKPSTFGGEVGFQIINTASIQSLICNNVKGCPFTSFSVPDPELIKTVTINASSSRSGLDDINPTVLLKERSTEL

Question: With `COc1ccc(-c2c(-c3ccc(S(C)(=O)=O)cc3)[nH]c3ccccc23)cc1` as the molecule, how does the IC50 read?
Answer: Its IC50 is 0.02 nM.

Question: For `CS(=O)(=O)c1ccc(-c2[nH]c3ccccc3c2-c2ccccc2)cc1`, which IC50 is on record?
Answer: The IC50 was 0.6 nM.

Question: Which IC50 (read-out: IC50) does the source give for `NS(=O)(=O)c1ccc(-c2[nH]c3ccccc3c2-c2ccc(F)cc2)cc1` here?
Answer: Its IC50 is 5.15 nM.

Question: `NS(=O)(=O)c1ccc(-c2[nH]c3ccc(F)cc3c2-c2ccccc2)cc1` was tested. Which IC50 (read-out: IC50) did it give?
Answer: The IC50 was 2 nM.

Question: Which IC50 does the source give for `NS(=O)(=O)c1ccc(-c2[nH]c3ccc(Cl)cc3c2-c2ccccc2)cc1` here?
Answer: The IC50 was 0.14 nM.

Question: For `NS(=O)(=O)c1ccc(-c2[nH]c3ccc(Cl)cc3c2-c2ccc(Cl)cc2)cc1`, which IC50 is on record?
Answer: The IC50 was 0.54 nM.

Question: With `CS(=O)(=O)c1ccc(-c2[nH]c3ccc(Cl)cc3c2-c2cccc(Cl)c2)cc1` as the molecule, how does the IC50 (read-out: IC50) read?
Answer: The IC50 was 0.8 nM.

Question: With `NS(=O)(=O)c1ccc(-c2[nH]c3ccc(Cl)cc3c2-c2ccccc2Cl)cc1` as the molecule, how does the IC50 (read-out: IC50) read?
Answer: Its IC50 is 100 nM.

Question: Which IC50 does the source give for `NS(=O)(=O)c1ccc(-c2[nH]c3ccccc3c2-c2ccccc2)cc1` here?
Answer: Its IC50 is 0.09 nM.

Question: `CC(=O)NS(=O)(=O)c1ccc(-c2[nH]c3ccccc3c2-c2ccccc2)cc1` was tested. Which IC50 (read-out: IC50) did it give?
Answer: The IC50 was 0.18 nM.

Question: How did the IC50 (read-out: IC50) turn out when `NS(=O)(=O)c1ccc(-c2[nH]c3ccc(Br)cc3c2-c2ccccc2)cc1` was run?
Answer: The IC50 was 5 nM.

Question: `CS(=O)(=O)c1ccc(-c2[nH]c3ccccc3c2-c2ccc(Br)cc2)cc1` was tested. Which IC50 did it give?
Answer: Its IC50 is 0.37 nM.

Question: `Cc1ccc(-c2c(-c3ccc(S(N)(=O)=O)cc3)[nH]c3ccccc23)cc1` was tested. Which IC50 (read-out: IC50) did it give?
Answer: Its IC50 is 0.07 nM.

Question: Which IC50 does the source give for `Cc1ccc(-c2c(-c3ccc(S(N)(=O)=O)cc3)[nH]c3ccccc23)cc1C` here?
Answer: Its IC50 is 1.46 nM.

Question: How did the IC50 turn out when `CS(=O)(=O)c1ccc(-c2[nH]c3ccccc3c2-c2ccc(Cl)cc2)cc1` was run?
Answer: The IC50 was 146 nM.

Question: For `NS(=O)(=O)c1ccc(-c2[nH]c3ccc(Cl)cc3c2-c2cccc(Cl)c2)cc1`, which IC50 (read-out: IC50) is on record?
Answer: The IC50 was 3.13 nM.

Question: Which IC50 does the source give for `Cc1ccc(-c2c(-c3ccc(S(C)(=O)=O)cc3)[nH]c3ccccc23)cc1` here?
Answer: Its IC50 is 0.09 nM.

Question: With `NS(=O)(=O)c1ccc(-c2[nH]c3ccccc3c2-c2ccc(Cl)cc2)cc1` as the molecule, how does the IC50 (read-out: IC50) read?
Answer: The IC50 was 33.5 nM.

Question: With `CS(=O)(=O)c1ccc(-c2[nH]c3ccc(Cl)cc3c2-c2ccccc2Cl)cc1` as the molecule, how does the IC50 (read-out: IC50) read?
Answer: The IC50 was 10 nM.

Question: With `Cc1ccc(-c2c(-c3ccc(S(C)(=O)=O)cc3)[nH]c3ccccc23)cc1C` as the molecule, how does the IC50 (read-out: IC50) read?
Answer: The IC50 was 0.17 nM.

Question: Which IC50 (read-out: IC50) does the source give for `CS(=O)(=O)c1ccc(-c2[nH]c3ccc(F)cc3c2-c2ccccc2)cc1` here?
Answer: Its IC50 is 5 nM.

Question: Which IC50 does the source give for `Cc1ccc2[nH]c(-c3ccc(S(N)(=O)=O)cc3)c(-c3ccccc3)c2c1` here?
Answer: Its IC50 is 0.02 nM.

Question: `Cc1ccc2[nH]c(-c3ccc(S(C)(=O)=O)cc3)c(-c3ccccc3)c2c1` was tested. Which IC50 did it give?
Answer: Its IC50 is 0.28 nM.

Question: With `NS(=O)(=O)c1ccc(-c2[nH]c3ccccc3c2-c2ccc(O)cc2)cc1` as the molecule, how does the IC50 read?
Answer: Its IC50 is 6.44 nM.

Question: Which IC50 (read-out: IC50) does the source give for `CS(=O)(=O)c1ccc(-c2[nH]c3ccc(Cl)cc3c2-c2ccc(Cl)cc2)cc1` here?
Answer: Its IC50 is 85.1 nM.

Question: How did the IC50 turn out when `CS(=O)(=O)c1ccc(-c2[nH]c3ccc(Br)cc3c2-c2ccccc2)cc1` was run?
Answer: Its IC50 is 1.41 nM.
